Data taken from ChEMBL document CHEMBL1141785, “Cimipronidine, a cyclic guanidine alkaloid from Cimicifuga racemosa” (J Nat Prod, 2005).
Activity calls are given as the source filed them. No cut-off for these calls is given here.

Molecular target: 5-hydroxytryptamine receptor 7 (Homo sapiens) (UniProt P34969)
Test: Binding affinity to 5HT7 receptor

Sequence of 5-hydroxytryptamine receptor 7 (Homo sapiens) (P34969 whole entry): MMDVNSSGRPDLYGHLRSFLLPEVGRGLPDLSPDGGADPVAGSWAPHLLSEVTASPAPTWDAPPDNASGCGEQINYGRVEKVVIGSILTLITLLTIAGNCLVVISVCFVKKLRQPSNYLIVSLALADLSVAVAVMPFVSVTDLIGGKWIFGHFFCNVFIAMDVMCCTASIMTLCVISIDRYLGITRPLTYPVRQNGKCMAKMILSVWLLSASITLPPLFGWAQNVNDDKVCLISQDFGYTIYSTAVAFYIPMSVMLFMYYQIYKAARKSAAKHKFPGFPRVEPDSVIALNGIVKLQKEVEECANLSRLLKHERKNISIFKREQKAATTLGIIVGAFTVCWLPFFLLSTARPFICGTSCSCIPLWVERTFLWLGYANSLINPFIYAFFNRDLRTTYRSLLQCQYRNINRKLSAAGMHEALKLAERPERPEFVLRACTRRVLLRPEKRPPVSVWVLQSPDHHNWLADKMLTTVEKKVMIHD

Row | Activity | Compound
1 | Active | O=C(/C=C/c1ccc(O)c(O)c1)O[C@H](C(=O)O)[C@](O)(Cc1ccc(O)c(O)c1)C(=O)O
2 | Active | N=C(N)N1CCCC1CC(=O)O (configuration not stated)
